# Reference: article PMC7391456, “Targeting fibroblast activation protein (FAP): next generation PET radiotracers using squaramide coupled bifunctional DOTA and DATA^5m chelators” (EJNMMI Radiopharmacy and Chemistry, 2020)
# Values joined by “and” are separate entries in the source; they are usually repeats but may differ in a detail not shown here. Identical values can stand only once.
# Experiments:
# [1] = molecular target: T1, human FAP (Homo sapiens, UniProt Q12884); assay: FAP inhibition assay (IC50, Z-Gly-Pro-AMC substrate); assay type: biochemical; conditions: for IC50: Z-Gly-Pro-AMC 50 μM, pH 8, 15 min pre-incubation at 37 °C; for Selectivity index (IC50 PREP / IC50 FAP): ratio of the IC50 values for FAP and PREP
# T1 construct: the human secretion signal was replaced with the HoneyBee mellitin secretion signal; HoneyBee mellitin secretion signal (replaces the native signal-anchor) (N); C-terminal tag of the BaculoDirect C-term kit (C); made in house; host or cells: Sf9 insect cells (baculovirus); purified from the supernatant
# T1 sequence (Q12884 26-760 limits assumed): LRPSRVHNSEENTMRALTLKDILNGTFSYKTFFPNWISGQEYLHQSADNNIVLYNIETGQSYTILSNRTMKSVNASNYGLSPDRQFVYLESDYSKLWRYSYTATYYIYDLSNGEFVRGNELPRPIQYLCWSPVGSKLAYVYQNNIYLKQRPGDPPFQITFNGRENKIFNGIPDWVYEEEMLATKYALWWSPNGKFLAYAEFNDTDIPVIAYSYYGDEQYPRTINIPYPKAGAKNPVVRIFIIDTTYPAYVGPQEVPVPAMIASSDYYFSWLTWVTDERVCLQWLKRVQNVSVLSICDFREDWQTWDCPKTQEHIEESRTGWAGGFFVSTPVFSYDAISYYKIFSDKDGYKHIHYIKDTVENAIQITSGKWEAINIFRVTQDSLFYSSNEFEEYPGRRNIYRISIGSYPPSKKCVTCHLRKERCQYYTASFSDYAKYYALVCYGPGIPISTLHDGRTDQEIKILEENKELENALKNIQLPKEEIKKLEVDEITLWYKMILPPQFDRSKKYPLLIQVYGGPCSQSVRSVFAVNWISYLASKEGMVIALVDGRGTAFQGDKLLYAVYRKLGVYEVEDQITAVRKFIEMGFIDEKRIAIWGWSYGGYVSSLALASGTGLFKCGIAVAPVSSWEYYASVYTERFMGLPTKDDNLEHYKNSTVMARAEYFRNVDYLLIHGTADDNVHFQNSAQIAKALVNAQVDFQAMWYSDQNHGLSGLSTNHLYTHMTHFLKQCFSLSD
# Excerpt: (§1) Enzymes: A gateway-entry clone for human FAP was purchased from Dharmacon (Accession number DQ891423) and the human secretion signal was replaced with the HoneyBee mellitin secretion signal. For transfection and expression of FAP in Sf9 insect cells, the C-terminal BaculoDirect kit from LifeTechnologies was used. The enzyme was purified from the supernatant of the insect cells using immobilized Ni-chelating chromatography (GE healthcare, Diegem, Belgium), followed by anion-exchange chromatography using a 1 mL HiTrap Q (GE healthcare, Diegem, Belgium). Human recombinant PREP was expressed in BL21(DE3) cells and purified using immobilized Co-chelating chromatography (GE healthcare) followed by anion-exchange chromatography on a 1 ml Mono Q column (GE healthcare).
# (§2) Eight concentrations of inhibitors were tested. The final DMSO concentration was kept constant during the experiment to exclude any solvent effects. Inhibitors were pre-incubated with the enzyme for 15 min at 37 °C, afterwards the substrate was added and the velocities of AMC release were measured kinetically at λex = 380 nm, λem = 465 nm for at least 10 min at 37 °C. The Infinite 200 (Tecan Group Ltd.) micro-titer plate reader and the Magellan software were used for measurement and data processing respectively.
# (§3) The data were fitted using a non-linear fit model in GraFit 7 software, according to the following equation: y=range/1+x/IC50^s where y is the value of the residual enzymatic activity compared to a non-inhibited sample, x is the final inhibitor concentration in the assay, s is the slope factor and the IC50 is the half maximal inhibitory concentration.
# [2] = molecular target: T2, Human recombinant PREP (Homo sapiens, UniProt P48147); assay: PREP inhibition assay (IC50, N-succinyl-Gly-Pro-AMC substrate); assay type: biochemical; conditions: N-succinyl-Gly-Pro-AMC 250 μM, pH 7.4, 15 min pre-incubation at 37 °C
# T2 sequence (P48147 1-710): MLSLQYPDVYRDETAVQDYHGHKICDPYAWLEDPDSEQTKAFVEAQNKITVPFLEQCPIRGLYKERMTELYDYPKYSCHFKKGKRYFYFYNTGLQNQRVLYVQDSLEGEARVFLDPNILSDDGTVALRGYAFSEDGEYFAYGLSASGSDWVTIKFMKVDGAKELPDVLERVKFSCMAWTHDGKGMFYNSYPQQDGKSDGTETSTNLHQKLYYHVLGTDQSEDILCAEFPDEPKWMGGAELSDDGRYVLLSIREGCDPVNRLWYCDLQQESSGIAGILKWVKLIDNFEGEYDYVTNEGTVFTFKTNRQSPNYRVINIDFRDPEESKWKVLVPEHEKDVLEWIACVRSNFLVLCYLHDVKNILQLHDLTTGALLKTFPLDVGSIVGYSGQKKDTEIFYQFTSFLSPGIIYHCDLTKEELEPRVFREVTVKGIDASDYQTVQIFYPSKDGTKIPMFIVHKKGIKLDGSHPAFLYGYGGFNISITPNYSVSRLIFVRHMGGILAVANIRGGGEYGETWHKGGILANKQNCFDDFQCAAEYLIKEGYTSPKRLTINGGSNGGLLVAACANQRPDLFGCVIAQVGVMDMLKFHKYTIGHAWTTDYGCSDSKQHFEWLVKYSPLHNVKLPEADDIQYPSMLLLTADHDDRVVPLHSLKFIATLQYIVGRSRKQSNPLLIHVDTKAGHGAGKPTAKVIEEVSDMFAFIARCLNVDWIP
# Excerpt: as §1
# as §2, with “concentration is” for “concentration was”, “any” for “any solvent”, “data processing,” for “data processing”
# as §3
# [3] = Stability studies of gallium-68 complexes in media (EtOH, human serum, saline, PBS); assay type: physicochemical
# Method: (§4) Gallium-68 stability studies against transmetallation (Fe, Cu, Ca, Mg), transchelation (EDTA, DTPA) as well as in HS, EtOH and saline (0.9% isotone NaCl-solution) were performed. 50 μl of the [^68Ga]Ga-DOTA.SA.FAPi labeling solution with > 95% radiochemical purity were added to 1 mL of the respective media. The measured time points for gallium-68 were 15, 30, 45, 60, 90, 120 min. HS (human male AB plasma, USA origin) was bought from Sigma Aldrich, PBS was purchased from Sigma Aldrich and 0.9% saline from B. Braun Melsungen AG (Melsungen, Germany).
# [4] = Gallium-68 stability against transmetallation (Fe, Cu, Ca, Mg) and transchelation (EDTA, DTPA); assay type: physicochemical
# Method: as §4
# [5] = system: HT-29 xenograft mice; assay: Micro-PET/CT imaging in HT-29 tumor-bearing mice; assay type: in vivo, mouse; conditions: PET 60 min p.i.
# Method: (§5) In vivo tumor model: HT-29 (human colon adenocarcinoma, ATCC, Rockville, Maryland) cells were routinely cultured in Dulbecco’s Modified Eagle Medium supplemented with 10% heat inactivated foetal bovine serum (FBS), 2 mM glutamine, 1% sodium pyruvate and 1% penicillin/streptomycin (Gibco, Life technologies). After detaching the cells, the number of viable cells was counted with the automated Muse™ Cell Analyzer (Merck Millipore). For the HT-29 subcutaneous model, 10.10^6 viable cells, suspended in 100 μl PBS, were inoculated in the right hind leg of female 6-week-old CD1^−/− Foxn1nu mice (n = 3), obtained from Charles River Laboratories (L’Arbresle, France). The animals were kept under environmentally controlled conditions (12 h light/dark cycle, 20–24 °C and 40–70% relative humidity) with food and water ad libitum. When tumors reached an approximate volume of 400 mm^3, 3 mice underwent μPET imaging. All experimental procedures and protocols were performed in accordance with European Directive 86/609/EEC Welfare and Treatment of Animals and were approved by the local ethical commission (2017–070, University of Antwerp, Belgium).
# Micro-PET imaging: Micro-PET scans were carried out using an Inveon small-animal PET/CT scanner (Siemens), after i.v. injection of 4 nmol of [^68Ga]-DOTA.SA.FAPi (8.6 MBq, molar activity of 2.1 GBq/ μmol) into tumor bearing mice (n = 3), under isoflurane anesthesia (5% for induction, 2% for maintenance). Static whole-body PET images were acquired 60 min after injection of the radiotracer. Following each PET acquisition, a whole-body CT scan was acquired to obtain the animal’s anatomical information individually.
# For quantitative analysis, PET data were reconstructed using 3-dimensional ordered subset expectation maximization (OSEM3D, 16 subsets and 2 iterations) and 18 maximum a posteriori (MAP) iterations including scatter and attenuation correction (matrix size, 128 × 128 × 159; voxel size, 0.776 × 0.776 × 0.776 mm;). Volumes of interest (VOIs) were manually drawn on the PET/CT images using PMOD (version 3.6; PMOD Technologies) to delineate the tumor, heart and muscle.
# [6] = system: HT-29 xenograft mice; assay: Ex vivo biodistribution in HT-29 xenograft mice; parameters: species or system mouse
# Method: as §5
# Ex vivo biodistribution: Immediately after the CT scans, the animals were sacrificed, the blood, tissues and organs were collected, weighed and the radioactivity was measured using an automatic γ-counter (Wizard^2 2480, PerkinElmer). Values were expressed as percentage of the injected dose per gram (%ID/g).
# [7] = HT-29 xenograft mice, 1 h p.i., N=3
# [8] = ex vivo biodistribution, 1 h p.i.
smiles,measurement,setting,value
"CN(CC(=O)O)C1(CCCCC(=O)NCCNc2c(NCCCCOc3ccc4nccc(C(=O)NCC(=O)N5CC(F)(F)C[C@H]5C#N)c4c3)c(=O)c2=O)CN(CC(=O)O)CCN(CC(=O)O)C1 [DATA^5m.SA.FAPi, (S)-2,2′-(6-((carboxymethyl)(methyl)amino)-6-(5-((2-((2-((4-((4-((2-(2-cyano-4,4-difluoropyrrolidin-1-yl)-2-oxoethyl)carbamoyl)quinolin-6-yl)oxy)butyl)amino)-3,4-dioxocyclobut-1-en-1-yl)amino)ethyl)amino)-5-oxopentyl)-1,4-diazepane-1,4-diyl) diacetic acid]",IC50,[1],0.8 ± 0.2 nM
same,Selectivity index (IC50 PREP / IC50 FAP),[1],2113
same,IC50,[2],1700 ± 100 nM
same,"Stability in different media, intact conjugate",[3]; different media (summary statement),more than 95%
CN(CC(=O)[O-])C1(CCCCC(=O)NCCNc2c(NCCCCOc3ccc4nccc(C(=O)NCC(=O)N5CC(F)(F)C[C@H]5C#N)c4c3)c(=O)c2=O)CN(CC(=O)[O-])CCN(CC(=O)[O-])C1.[68Ga+3] [[^68Ga]Ga-DATA^5m.SA.FAPi],"Stability, intact conjugate","[3]; human serum (HS), over 2 h",> 95%
same,"Stability, intact conjugate","[3]; phosphate buffered saline (PBS), over 120 min",> 95%
same,"Stability, intact conjugate","[3]; saline 0.9% (NaCl), over 2 h",> 95%
N#C[C@@H]1CC(F)(F)CN1C(=O)CNC(=O)c1ccnc2ccc(OCCCCNc3c(NCCNC(=O)CN4CCN(CC(=O)[O-])CCN(CC(=O)[O-])CCN(CC(=O)[O-])CC4)c(=O)c3=O)cc12.[68Ga+3] [[^68Ga]Ga-DOTA.SA.FAPi],"Stability, intact conjugate","[3]; ethanol (EtOH), over 2 h at 37 °C",over 98%
same,"Stability, intact conjugate","[3]; human serum (HS), over 2 h",over 98%
same,"Stability, intact conjugate","[3]; saline 0.9% (NaCl), over 2 h",over 98%
same,Stability against transmetallation,"[4]; against Ca, after 2 h",> 95%
same,Stability against transmetallation,"[4]; against Cu, after 2 h",> 95%
same,Stability against transchelation,"[4]; against DTPA, after 2 h",over 98%
same,Stability against transchelation,"[4]; against EDTA, after 2 h",over 98%
same,Stability against transmetallation,"[4]; against Fe, after 90 min",> 95%
same,Stability against transmetallation,"[4]; against Fe, after 2 h",over 92%
same,Stability against transmetallation,"[4]; against Mg, after 2 h",> 95%
same,SUVmean heart,[5],0.15 ± 0.01 and 0.15
same,SUVmean kidneys,[5],0.27 ± 0.11 and 0.27
same,SUVmean liver,[5],0.22 ± 0.08 and 0.22
same,SUVmean muscle,[5],0.18 ± 0.07 and 0.18
same,SUVmean small intestine,[5],0.37 ± 0.14
same,SUVmean tumor,[5],0.75 ± 0.09 and 0.75
same,"Ex vivo biodistribution, Tumor","[6]; HT-29 xenograft mice, 1 h (60 min) p.i., N=3",5.2 %ID/g
same,"Ex vivo biodistribution, Bladder",[6]; [7],0.96 %ID/g
same,"Ex vivo biodistribution, Blood",[6]; [7],0.56 %ID/g
same,"Ex vivo biodistribution, Bone",[6]; [7],3.56 %ID/g
same,"Ex vivo biodistribution, Brain",[6]; [7],1.27 %ID/g
same,"Ex vivo biodistribution, Fat",[6]; [7],0.38 %ID/g
same,"Ex vivo biodistribution, Heart",[6]; [7],0.22 %ID/g
same,"Ex vivo biodistribution, Kidneys",[6]; [7],1.77 %ID/g
same,"Ex vivo biodistribution, Large Intestine",[6]; [7],0.21 %ID/g
same,"Ex vivo biodistribution, Liver",[6]; [7],0.70 %ID/g
same,"Ex vivo biodistribution, Lungs",[6]; [7],0.33 %ID/g
same,"Ex vivo biodistribution, Muscle",[6]; [7],0.45 %ID/g
same,"Ex vivo biodistribution, Pancreas",[6]; [7],0.51 %ID/g
same,"Ex vivo biodistribution, Skin",[6]; [7],0.04 %ID/g
same,"Ex vivo biodistribution, Small Intestine",[6]; [7],1.81 %ID/g
same,"Ex vivo biodistribution, Spleen",[6]; [7],0.23 %ID/g
same,"Ex vivo biodistribution, Stomach",[6]; [7],0.21 %ID/g
same,tumor-to-blood ratio,[6]; [8],9.2 ± 1.1
same,tumor-to-bone ratio,[6]; [8],1.5 ± 0.2
same,tumor-to-large intestine ratio,[6]; [8],24.9 ± 1.7
same,tumor-to-muscle ratio,[6]; [8],11.5 ± 2.2
same,tumor-to-small intestine ratio,[6]; [8],2.9 ± 0.8
CN(CC(=O)[O-])C1(CCCCC(=O)NCCNc2c(NCCCCOc3ccc4nccc(C(=O)NCC(=O)N5CC(F)(F)C[C@H]5C#N)c4c3)c(=O)c2=O)CN(CC(=O)[O-])CCN(CC(=O)[O-])C1.[Ga+3] [[^natGa]Ga-DATA^5m.SA.FAPi],IC50,[1],0.7 ± 0.1 nM
same,Selectivity index (IC50 PREP / IC50 FAP),[1],6714
same,IC50,[2],4700 ± 300 nM
N#C[C@@H]1CC(F)(F)CN1C(=O)CNC(=O)c1ccnc2ccc(OCCCCNc3c(NCCNC(=O)CN4CCN(CC(=O)[O-])CCN(CC(=O)[O-])CCN(CC(=O)[O-])CC4)c(=O)c3=O)cc12.[Ga+3] [[^natGa]Ga-DOTA.SA.FAPi],IC50,[1],1.4 ± 0.2 nM
same,IC50,[2],8700 ± 900 nM
